PMC9202051 (ACS Omega, 2022)
Like-named read-outs stand apart in the source and are kept apart here.

Assays:
[1] = system: blood mononuclear cells (MNCs); experiment: MTT cell viability assay; type: cell-based, human; conditions: MTT assay, 0.25 mM, mononuclear cells; mean ± SEM, n = 3
soybean 15-LOX = molecular target: T1, soybean 15-LOX (Glycine max, UniProt P08170); experiment: soybean 15-LOX inhibition assay; type: biochemical; conditions: for inhibition at 250 µM: read-out: inhibition (%) at 0.25 mM
T1 sequence (P08170 1-839): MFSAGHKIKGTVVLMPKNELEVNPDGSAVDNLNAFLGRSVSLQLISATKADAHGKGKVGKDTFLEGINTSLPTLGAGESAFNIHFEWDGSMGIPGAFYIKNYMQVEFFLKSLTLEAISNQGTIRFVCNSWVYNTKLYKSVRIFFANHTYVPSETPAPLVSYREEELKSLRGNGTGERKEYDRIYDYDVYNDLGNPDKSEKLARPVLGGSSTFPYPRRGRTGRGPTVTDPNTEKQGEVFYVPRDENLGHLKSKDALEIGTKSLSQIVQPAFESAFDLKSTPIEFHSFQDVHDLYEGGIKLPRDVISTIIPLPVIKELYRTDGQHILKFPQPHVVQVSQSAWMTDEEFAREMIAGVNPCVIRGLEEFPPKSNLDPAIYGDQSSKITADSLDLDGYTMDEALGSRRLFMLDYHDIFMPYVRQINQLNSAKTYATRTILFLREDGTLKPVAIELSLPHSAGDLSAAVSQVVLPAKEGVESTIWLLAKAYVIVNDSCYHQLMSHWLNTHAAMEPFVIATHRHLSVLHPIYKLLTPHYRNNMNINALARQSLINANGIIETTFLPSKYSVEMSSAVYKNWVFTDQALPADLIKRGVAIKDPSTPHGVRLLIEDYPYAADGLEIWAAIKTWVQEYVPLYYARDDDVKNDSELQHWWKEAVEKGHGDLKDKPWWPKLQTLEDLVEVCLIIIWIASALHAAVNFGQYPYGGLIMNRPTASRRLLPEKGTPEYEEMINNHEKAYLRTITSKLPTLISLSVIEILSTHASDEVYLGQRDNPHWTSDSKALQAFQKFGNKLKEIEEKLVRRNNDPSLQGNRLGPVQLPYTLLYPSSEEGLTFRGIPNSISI

MTT cell viability assay = type: cell-based, human; conditions: human, blood mononuclear cells (MNCs)

IC50 (soybean 15-LOX) | inhibition at 250 µM (soybean 15-LOX) | Compound | viability at 0.25 mM (MTT cell viability assay) | further results
 |  | 2-((5-(4-Chlorophenyl)-4-(furan-2-ylmethyl)-4H-1,2,4-triazol-3-yl)thio)-N-(m-tolyl) Methylacetamide [Compound 7f] |  | cell viability (%) at 0.25 mM [1]: 90.21 ± 1.2%; inhibition (%) at 0.25 mM (soybean 15-LOX; 0.25 mM, mean ± SEM, n = 3): 82.13 ± 1.85%; IC50 (soybean 15-LOX; mean ± SEM, n = 3): 45.4 ± 0.72 µM
26.3 ± 0.62 µM | 89.3 ± 1.55% | CCCNC(=O)C(C)Sc1nnc(-c2ccc(Cl)cc2)n1Cc1ccco1 (stereo not shown) [Compound 7b, 2-((5-(4-Chlorophenyl)-4-(furan-2-ylmethyl)-4H-1,2,4-triazol-3-yl)thio)-N-n-propylmethylacetamide] | 90.1 ± 1.1% | 
2.24 ± 0.13 µM |  | O=c1cc(-c2ccccc2)oc2cc(O)c(O)c(O)c12 [baicalein, reference compound] |  | 
 |  | COc1cc(/C=C/C(=O)CC(=O)/C=C/c2ccc(O)c(OC)c2)ccc1O [curcumin, reference compound] | 73.9 ± 1.5% | 
 |  | O=P1(N(CCCl)CCCl)NCCCO1 (stereo not shown) [cyclophosphamide, reference compound] | 56.5 ± 1.9% | 
 | 92.6 ± 1.24% | O=c1c(O)c(-c2ccc(O)c(O)c2)oc2cc(O)cc(O)c12 [quercetin, reference compound] |  | 
